Data taken from patent US20250214991A1 (Oncopia Therapeutics, Inc. d/b/a/ SK Life Science Labs, priority 2022, published 2025).

Key:
IKZF2 = IKZF2 (Homo sapiens (Human), UniProt Q96SW2+Q9UKS7); assay: In vitro IKZF2 HiBit Assay (HEK293T Flp-in-HiBiT cells); type: cell-based; settings: HEK293T Flp-in-HiBiT cells, 6 hrs incubation; for DC50: read-out: IKZF2 HiBit DC50; for Dmax: HEK-293T, read-out: IKZF2 HiBit Dmax (%)
Outline: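 HEK293T Flp-in cells carrying an endogenous N-terminal HiBiT tag on IKZF2 were exposed to compound for 6 h at 0.1% DMSO. The dilution series was 11 doses at 3-fold, diluted from 1 mM. Nano-Glo HiBiT lytic luminescence, normalized to DMSO, gave DC50 for 50% degradation and Dmax across the concentration range, both reported in letter bins.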

IKZF1 = IKZF1 (Homo sapiens (Human), UniProt Q13422+Q96SW2); assay: In vitro IKZF1 HiBit Assay (HEK293T Flp-in-HiBiT-IKZF1 stable cell line); type: cell-based; settings: HEK293T Flp-in-HiBiT-IKZF1 stable cell line, 6 hrs incubation; for DC50: read-out: IKZF1 HiBit DC50; for Dmax: HEK-293T, read-out: IKZF1 HiBit Dmax (%)
Outline: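 HEK293T Flp-in cells carrying N-terminal HiBiT-tagged IKZF1 were exposed to compound (0.1% DMSO) for 6 h at 3000 cells/well. HiBiT luminescence was read after lytic LgBiT detection. DC50 and Dmax were taken from DMSO-normalized dose-response curves.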

CRBN/DDB1 = CRBN/DDB1 (Homo sapiens (Human), UniProt Q96SW2); assay: IC50 measurements for binding to CRBN/DDB1 (HTRF); settings: His tagged CRBN+DDB, Cy5-labeled Thalidomide probe, one hour
Outline: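 HTRF competition binding with 2 nM His-tagged CRBN-DDB1 complex, 60 nM Cy5-thalidomide probe and 0.4 nM anti-His Tb cryptate in 50 mM HEPES pH 7.5, 1 mM TCEP, 0.01% Brij-35, 50 mM NaCl, 0.1% BSA. Read after 1 h at room temperature; IC50 from four-parameter dose-response fit.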

CRBN/DDB1, sequence (Q96SW2 whole entry, species assumed): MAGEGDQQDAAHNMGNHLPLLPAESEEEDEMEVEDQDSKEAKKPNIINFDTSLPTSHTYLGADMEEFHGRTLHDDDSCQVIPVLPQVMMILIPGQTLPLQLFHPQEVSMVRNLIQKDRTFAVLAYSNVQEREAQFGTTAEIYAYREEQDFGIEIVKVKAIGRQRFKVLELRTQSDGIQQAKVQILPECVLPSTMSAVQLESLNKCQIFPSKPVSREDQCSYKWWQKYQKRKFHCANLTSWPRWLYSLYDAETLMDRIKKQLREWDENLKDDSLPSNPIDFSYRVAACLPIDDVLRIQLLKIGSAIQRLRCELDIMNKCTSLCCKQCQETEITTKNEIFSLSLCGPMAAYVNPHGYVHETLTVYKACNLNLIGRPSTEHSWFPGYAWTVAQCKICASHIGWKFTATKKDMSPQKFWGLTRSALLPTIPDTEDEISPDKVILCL
CRBN/DDB1, sequence (Q16531 whole entry partner, species assumed): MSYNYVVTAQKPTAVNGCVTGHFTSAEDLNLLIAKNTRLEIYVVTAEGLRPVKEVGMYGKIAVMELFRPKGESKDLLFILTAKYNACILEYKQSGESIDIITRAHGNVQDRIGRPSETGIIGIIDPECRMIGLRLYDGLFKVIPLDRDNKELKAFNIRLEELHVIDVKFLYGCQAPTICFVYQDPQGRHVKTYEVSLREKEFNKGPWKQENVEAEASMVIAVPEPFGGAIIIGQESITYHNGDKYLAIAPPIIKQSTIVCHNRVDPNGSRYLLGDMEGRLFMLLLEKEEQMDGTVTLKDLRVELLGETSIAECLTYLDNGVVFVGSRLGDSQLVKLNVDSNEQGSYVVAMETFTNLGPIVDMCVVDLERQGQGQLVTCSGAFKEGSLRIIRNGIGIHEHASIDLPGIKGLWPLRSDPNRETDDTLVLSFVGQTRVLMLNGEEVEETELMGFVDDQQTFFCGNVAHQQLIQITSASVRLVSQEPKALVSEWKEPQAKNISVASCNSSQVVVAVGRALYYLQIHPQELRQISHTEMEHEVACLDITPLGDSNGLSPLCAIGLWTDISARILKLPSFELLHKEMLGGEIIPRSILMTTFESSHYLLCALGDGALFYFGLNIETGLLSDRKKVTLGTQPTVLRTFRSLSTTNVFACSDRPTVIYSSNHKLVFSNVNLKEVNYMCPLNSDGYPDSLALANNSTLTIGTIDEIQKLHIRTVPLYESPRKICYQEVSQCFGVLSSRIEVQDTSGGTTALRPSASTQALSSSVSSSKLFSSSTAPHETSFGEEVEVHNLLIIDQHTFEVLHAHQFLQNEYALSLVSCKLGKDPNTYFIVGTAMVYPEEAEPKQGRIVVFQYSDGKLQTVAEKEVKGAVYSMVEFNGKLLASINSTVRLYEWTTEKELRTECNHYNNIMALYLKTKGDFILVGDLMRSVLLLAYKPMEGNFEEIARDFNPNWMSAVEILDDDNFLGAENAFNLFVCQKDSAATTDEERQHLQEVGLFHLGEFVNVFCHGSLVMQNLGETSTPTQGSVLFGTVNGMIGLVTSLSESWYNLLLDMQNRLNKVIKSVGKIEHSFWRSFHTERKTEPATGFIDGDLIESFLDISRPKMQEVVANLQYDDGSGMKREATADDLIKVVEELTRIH
IKZF1, sequence (Q13422 whole entry): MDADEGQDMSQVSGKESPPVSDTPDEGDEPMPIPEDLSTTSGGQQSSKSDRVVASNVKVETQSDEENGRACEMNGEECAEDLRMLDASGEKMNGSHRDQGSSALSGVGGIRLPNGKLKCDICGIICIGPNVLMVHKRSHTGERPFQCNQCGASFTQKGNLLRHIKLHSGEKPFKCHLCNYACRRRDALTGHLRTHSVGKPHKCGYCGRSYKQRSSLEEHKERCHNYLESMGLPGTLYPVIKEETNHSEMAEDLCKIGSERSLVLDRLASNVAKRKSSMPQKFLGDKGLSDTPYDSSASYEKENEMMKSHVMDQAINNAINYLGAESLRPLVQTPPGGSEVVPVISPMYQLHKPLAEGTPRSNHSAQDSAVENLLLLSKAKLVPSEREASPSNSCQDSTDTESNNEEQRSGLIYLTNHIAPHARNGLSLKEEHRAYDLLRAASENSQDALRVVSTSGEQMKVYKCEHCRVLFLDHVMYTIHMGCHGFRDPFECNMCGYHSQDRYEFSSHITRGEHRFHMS
IKZF1, sequence (Q96SW2 whole entry): as the sequence (Q96SW2 whole entry, species assumed) above
IKZF1, sequence (Q16531 2-1140 partner): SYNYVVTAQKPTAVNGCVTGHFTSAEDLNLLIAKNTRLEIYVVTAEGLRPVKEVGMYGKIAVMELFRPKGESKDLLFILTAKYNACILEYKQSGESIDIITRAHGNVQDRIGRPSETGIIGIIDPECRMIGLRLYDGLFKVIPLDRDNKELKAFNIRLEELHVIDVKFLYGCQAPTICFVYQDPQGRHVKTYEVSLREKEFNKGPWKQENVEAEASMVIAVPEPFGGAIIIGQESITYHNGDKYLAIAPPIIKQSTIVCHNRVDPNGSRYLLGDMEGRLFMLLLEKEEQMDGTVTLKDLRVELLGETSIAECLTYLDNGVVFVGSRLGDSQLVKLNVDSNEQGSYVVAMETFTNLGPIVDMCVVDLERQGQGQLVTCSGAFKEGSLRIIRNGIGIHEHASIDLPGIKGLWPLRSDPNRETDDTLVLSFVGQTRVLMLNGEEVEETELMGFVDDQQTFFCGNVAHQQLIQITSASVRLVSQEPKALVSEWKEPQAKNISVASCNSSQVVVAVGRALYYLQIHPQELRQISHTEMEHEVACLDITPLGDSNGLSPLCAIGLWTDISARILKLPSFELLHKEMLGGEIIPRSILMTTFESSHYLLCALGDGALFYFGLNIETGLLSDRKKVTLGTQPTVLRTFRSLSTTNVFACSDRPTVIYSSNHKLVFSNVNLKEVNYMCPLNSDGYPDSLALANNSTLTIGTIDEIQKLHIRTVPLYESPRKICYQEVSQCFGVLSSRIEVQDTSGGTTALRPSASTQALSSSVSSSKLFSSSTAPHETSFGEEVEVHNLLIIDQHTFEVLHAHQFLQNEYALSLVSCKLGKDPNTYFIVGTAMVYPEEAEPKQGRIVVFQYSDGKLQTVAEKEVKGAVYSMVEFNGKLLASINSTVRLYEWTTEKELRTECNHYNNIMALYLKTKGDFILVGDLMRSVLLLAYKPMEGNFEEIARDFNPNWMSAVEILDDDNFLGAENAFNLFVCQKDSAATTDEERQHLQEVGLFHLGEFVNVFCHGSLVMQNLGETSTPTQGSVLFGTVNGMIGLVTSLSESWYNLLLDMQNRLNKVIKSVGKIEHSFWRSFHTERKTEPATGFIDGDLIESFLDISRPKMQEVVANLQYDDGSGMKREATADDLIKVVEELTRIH
IKZF2, sequence (Q9UKS7 whole entry): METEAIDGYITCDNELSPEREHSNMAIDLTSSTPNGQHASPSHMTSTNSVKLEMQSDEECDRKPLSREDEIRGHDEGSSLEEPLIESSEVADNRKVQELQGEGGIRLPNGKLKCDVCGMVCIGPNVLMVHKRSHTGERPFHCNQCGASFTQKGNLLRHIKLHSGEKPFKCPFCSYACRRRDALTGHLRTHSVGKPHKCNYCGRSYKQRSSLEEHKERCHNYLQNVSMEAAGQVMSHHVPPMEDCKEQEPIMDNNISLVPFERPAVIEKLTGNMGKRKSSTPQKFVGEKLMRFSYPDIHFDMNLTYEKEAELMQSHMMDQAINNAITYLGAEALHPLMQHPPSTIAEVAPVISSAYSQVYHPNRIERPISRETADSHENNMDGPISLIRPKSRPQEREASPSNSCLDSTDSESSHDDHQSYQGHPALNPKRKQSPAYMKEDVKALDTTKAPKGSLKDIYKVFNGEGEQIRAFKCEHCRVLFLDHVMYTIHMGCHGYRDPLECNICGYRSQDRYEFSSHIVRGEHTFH
IKZF2, sequence (Q96SW2 whole entry): as the sequence (Q96SW2 whole entry, species assumed) above
IKZF2, sequence (Q16531 2-1140 partner): as the sequence (Q16531 2-1140 partner) above

Row | Compound | DC50 (IKZF2) [nM] | Dmax (IKZF2) [%] | DC50 (IKZF1) [nM] | Dmax (IKZF1) [%] | IC50 (CRBN/DDB1) [nM]
1 | CN(C)CC1CCN(Cc2cc(-c3ccc4c(c3)CN(C3CCC(=O)NC3=O)C4=O)nc3[nH]ccc23)C1 (stereo not drawn) [Example 123] | 1 to 10 | > 80 | 10 to 100 | 20 to 40 | 100 to 500
2 | CCn1ccc2nc(-c3ccc4c(c3)CN(C3CCC(=O)NC3=O)C4=O)cc(CN3CCC3)c21 (stereo not drawn) [Example 124, 3-(5-(7-(azetidin-1-ylmethyl)-1-ethyl-1H-pyrrolo[3,2-b]pyridin-5-yl)-1-oxoisoindolin-2-yl) piperidine-2,6-dione] | 1 to 10 | > 80 | 10 to 100 | 20 to 40 | 1000 to 5000
3 | O=C1CCC(N2Cc3cc(-c4cc(CN5CCC(O)CC5)c5cc[nH]c5n4)ccc3C2=O)C(=O)N1 (stereo not drawn) [Example 125, 3-(5-(4-((4-hydroxypiperidin-1-yl)methyl)-1H-pyrrolo[2,3-b]pyridin-6-yl)-1-oxoisoindolin-2-yl) piperidine-2,6-dione] | 10 to 100 | > 80 | 100 to 1000 | 20 to 40 | 100 to 500
4 | O=C1CCC(N2Cc3c(ccc(-c4cc(CN5CCCC5)c5cc[nH]c5n4)c3F)C2=O)C(=O)N1 (stereo not drawn) [Example 126, 3-(4-fluoro-1-oxo-5-(4-(pyrrolidin-1-ylmethyl)-1H-pyrrolo[2,3-b]pyridin-6-yl)isoindolin-2-yl) piperidine-2,6-dione] | < 1 | > 80 | 1 to 10 | 40 to 60 | 100 to 500
5 | O=C1CCC(N2Cc3cc(-c4cc(CN5CCC(F)C5)c5cc[nH]c5n4)ccc3C2=O)C(=O)N1 (stereo not drawn) [Example 127, 3-(5-(4-((3-fluoropyrrolidin-1-yl)methyl)-1H-pyrrolo[2,3-b]pyridin-6-yl)-1-oxoisoindolin-2-yl) piperidine-2,6-dione] | 1 to 10 | > 80 | 100 to 1000 | 20 to 40 | 100 to 500
6 | O=C1CCC(N2Cc3cc(-c4cc(CN5CCCC5)c5ccn(CCOCc6ccccc6)c5n4)ccc3C2=O)C(=O)N1 (stereo not drawn) [Example 130, 3-(5-(1-(2-(benzyloxy)ethyl)-4-(pyrrolidin-1-ylmethyl)-1H-pyrrolo[2,3-b]pyridin-6-yl)-1-oxoisoindolin-2-yl) piperidine-2,6-dione] | 1 to 10 | 40 to 60 | > 10000 | < 20 | 100 to 500
7 | O=C1CCC(N2Cc3cc(-c4cc(CN5CCCC5)c5ccn(CCO)c5n4)ccc3C2=O)C(=O)N1 (stereo not drawn) [Example 131, 3-(5-(1-(2-hydroxyethyl)-4-(pyrrolidin-1-ylmethyl)-1H-pyrrolo[2,3-b]pyridin-6-yl)-1-oxoisoindolin-2-yl) piperidine-2,6-dione] | 10 to 100 | 60 to 80 | > 10000 | < 20 | 1000 to 5000
8 | Cc1cc(-c2ccc3c(c2)CN(C2CCC(=O)NC2=O)C3=O)nc2c1CCN2CCO (stereo not drawn) [Example 132, 3-(5-(1-(2-hydroxyethyl)-4-methyl-2,3-dihydro-1H-pyrrolo[2,3-b]pyridin-6-yl)-1-oxoisoindolin-2-yl) piperidine-2,6-dione] | 10 to 100 | 40 to 60 | > 10000 | < 20 | 5000 to 10000
9 | N#CCn1ccc2c(CN3CCCC3)cc(-c3ccc4c(c3)CN(C3CCC(=O)NC3=O)C4=O)nc21 (stereo not drawn) [Example 133, 2-(6-(2-(2,6-dioxopiperidin-3-yl)-1-oxoisoindolin-5-yl)-4-(pyrrolidin-1-ylmethyl)-1H-pyrrolo[2,3-b]pyridin-1-yl) acetonitrile] | 1 to 10 | 60 to 80 | > 10000 | < 20 | 100 to 500
10 | O=C1CCC(N2Cc3cc(-c4cc(CN5CCCC5)c5ccn(-c6ccccc6)c5n4)ccc3C2=O)C(=O)N1 (stereo not drawn) [Example 139, 3-(1-oxo-5-(1-phenyl-4-(pyrrolidin-1-ylmethyl)-1H-pyrrolo[2,3-b]pyridin-6-yl)isoindolin-2-yl) piperidine-2,6-dione] | 1 to 10 | 60 to 80 | 10 to 100 | 20 to 40 | 500 to 1000
11 | CC(C)Cn1ccc2c(CN3CCCC3)cc(-c3ccc4c(c3)CN(C3CCC(=O)NC3=O)C4=O)nc21 (stereo not drawn) [Example 140, 3-(5-(1-isobutyl-4-(pyrrolidin-1-ylmethyl)-1H-pyrrolo[2,3-b]pyridin-6-yl)-1-oxoisoindolin-2-yl) piperidine-2,6-dione] | < 1 | 20 to 40 | > 10000 | < 20 | 100 to 500
12 | O=C1CCC(N2Cc3cc(-c4cc(CN5CCC(F)C5)c5ccn(C6CC6)c5n4)ccc3C2=O)C(=O)N1 (stereo not drawn) [Example 141, 3-(5-(1-cyclopropyl-4-((3-fluoropyrrolidin-1-yl)methyl)-1H-pyrrolo[2,3-b]pyridin-6-yl)-1-oxoisoindolin-2-yl) piperidine-2,6-dione] | 1 to 10 | > 80 | > 10000 | < 20 | 1000 to 5000
13 | O=C1CCC(N2Cc3cc(-c4cc(CN5CCC(O)C5)c5ccn(C6CC6)c5n4)ccc3C2=O)C(=O)N1 (stereo not drawn) [Example 142, 3-(5-(1-cyclopropyl-4-((3-hydroxypyrrolidin-1-yl)methyl)-1H-pyrrolo[2,3-b]pyridin-6-yl)-1-oxoisoindolin-2-yl) piperidine-2,6-dione] | 1 to 10 | > 80 | > 10000 | < 20 | 500 to 1000
14 | O=C1CCC(N2Cc3cc(-c4cc(CN5CC(F)C5)c5ccn(C6CC6)c5n4)ccc3C2=O)C(=O)N1 (stereo not drawn) [Example 143, 3-(5-(1-cyclopropyl-4-((3-fluoroazetidin-1-yl)methyl)-1H-pyrrolo[2,3-b]pyridin-6-yl)-1-oxoisoindolin-2-yl) piperidine-2,6-dione] | 1 to 10 | > 80 | > 10000 | < 20 | 1000 to 5000
15 | O=C1CCC(N2Cc3cc(-c4cc(CN5CCC(CO)CC5)c5ccn(C6CC6)c5n4)ccc3C2=O)C(=O)N1 (stereo not drawn) [Example 144, 3-(5-(1-cyclopropyl-4-((4-(hydroxymethyl)piperidin-1-yl)methyl)-1H-pyrrolo[2,3-b]pyridin-6-yl)-1-oxoisoindolin-2-yl) piperidine-2,6-dione] | 1 to 10 | > 80 | 10 to 100 | 20 to 40 | 100 to 500
16 | O=C1CCC(N2Cc3cc(-c4cc(CN5CCCC5)c5nc[nH]c5n4)ccc3C2=O)C(=O)N1 (stereo not drawn) [Example 145, 3-(1-oxo-5-(7-(pyrrolidin-1-ylmethyl)-3H-imidazo[4,5-b]pyridin-5-yl)isoindolin-2-yl) piperidine-2,6-dione] | 100 to 1000 | < 20 | > 10000 | < 20 | 1000 to 5000
17 | CC(C)C1CCN(Cc2cc(-c3ccc4c(c3)CN(C3CCC(=O)NC3=O)C4=O)nc3[nH]ccc23)C1 (stereo not drawn) [Example 146] | 1 to 10 | > 80 | 1 to 10 | 40 to 60 | 100 to 500
18 | O=C1CCC(N2Cc3cc(-c4cc(CN5CCCC5)c5ccn(Cc6ccccc6)c5n4)ccc3C2=O)C(=O)N1 (stereo not drawn) [Example 147, 3-(5-(1-benzyl-4-(pyrrolidin-1-ylmethyl)-1H-pyrrolo[2,3-b]pyridin-6-yl)-1-oxoisoindolin-2-yl) piperidine-2,6-dione] | 1 to 10 | 40 to 60 | > 10000 | < 20 | 100 to 500
